Among the data in ChEMBL document CHEMBL3638788, “Benzoxazines, benzothiazines, and related compounds having NOS inhibitory activity” (2013) are IC50 values, retold here.

Some results are limits rather than exact numbers.

As a reminder, the IC50 is the midpoint of a concentration-inhibition curve.

The target of assay [1] is Nitric oxide synthase, inducible (Homo sapiens, UniProt P35228). Description: Enzyme Assay: Recombinant human inducible NOS (iNOS) was produced in Baculovirus-infected Sf9 cells (ALEXIS). In a radiometric method, NO synthase activity was determined by measuring the conversion of [3H]L-arginine to [3H]L-citrulline. To measure iNOS, 10 uL of enzyme was added to 100 uL of 100 mM HEPES, pH=7.4, containing 1 mM CaCl2, 1 mM EDTA, 1 mM dithiothreitol, 1 uM FMN, 1 uM FAD, 10 uM tetrahydrobiopterin, 120 uM NADPH, and 100 nM CaM. To measure enzyme inhibition, a 15 uL solution of a test substance was added to the enzyme assay solution, followed by a pre-incubation time of 15 min at RT. The reaction was initiated by addition of 20 uL L-arginine containing 0.25 uCi of [3H] arginine/mL and 24 uM L-arginine. The total volume of the reaction mixture was 150 uL in every well.
Nitric oxide synthase, inducible, sequence (P35228 whole entry): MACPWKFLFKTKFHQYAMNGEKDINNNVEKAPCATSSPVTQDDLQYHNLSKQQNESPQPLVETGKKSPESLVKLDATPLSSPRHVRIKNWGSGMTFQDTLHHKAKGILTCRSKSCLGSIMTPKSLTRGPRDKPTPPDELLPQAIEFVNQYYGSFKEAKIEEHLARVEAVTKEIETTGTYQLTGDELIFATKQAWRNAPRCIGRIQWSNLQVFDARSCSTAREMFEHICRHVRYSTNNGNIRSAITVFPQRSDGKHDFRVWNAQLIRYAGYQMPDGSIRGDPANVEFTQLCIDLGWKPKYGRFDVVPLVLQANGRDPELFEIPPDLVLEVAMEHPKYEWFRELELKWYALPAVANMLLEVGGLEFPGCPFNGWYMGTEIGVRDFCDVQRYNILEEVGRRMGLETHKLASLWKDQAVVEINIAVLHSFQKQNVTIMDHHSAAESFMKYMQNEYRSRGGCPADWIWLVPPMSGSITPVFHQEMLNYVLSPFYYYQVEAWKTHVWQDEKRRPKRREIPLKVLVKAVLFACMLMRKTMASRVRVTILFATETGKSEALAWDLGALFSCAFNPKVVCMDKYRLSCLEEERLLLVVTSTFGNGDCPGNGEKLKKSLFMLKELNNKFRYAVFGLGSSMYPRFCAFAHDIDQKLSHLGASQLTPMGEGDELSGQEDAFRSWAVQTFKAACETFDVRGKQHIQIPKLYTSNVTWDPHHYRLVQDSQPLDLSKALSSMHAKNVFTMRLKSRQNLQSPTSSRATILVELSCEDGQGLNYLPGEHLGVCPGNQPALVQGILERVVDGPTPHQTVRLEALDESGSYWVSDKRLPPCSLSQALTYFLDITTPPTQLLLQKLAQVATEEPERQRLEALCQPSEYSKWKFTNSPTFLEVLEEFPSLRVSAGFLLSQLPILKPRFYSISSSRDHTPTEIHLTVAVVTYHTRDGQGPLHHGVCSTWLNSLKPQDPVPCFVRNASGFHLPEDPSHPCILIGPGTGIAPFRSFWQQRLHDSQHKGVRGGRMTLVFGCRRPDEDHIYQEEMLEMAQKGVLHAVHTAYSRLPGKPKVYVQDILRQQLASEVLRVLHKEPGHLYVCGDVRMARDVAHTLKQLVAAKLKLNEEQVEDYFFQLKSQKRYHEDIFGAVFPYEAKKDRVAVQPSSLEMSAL

For another assay, the target named is Nitric oxide synthase 1 (Homo sapiens, UniProt P29475). Description: (§1) Enzyme Assay: Primary stock solutions of test compounds at a concentration of 6 mM were prepared from the 2 to 5 mg powder. The primary stock solutions of each test compound were prepared freshly in distilled water on the day of study to obtain a final concentration of 6 mM. For determination of IC50 values, 12 test compound concent rations were prepared as 3-fold serial dilutions. Concentration range of test compound utilized for nNOS were 0.001 to 300 μM and for eNOS were 0.003 to 10 00 μM. The vehicle of the test compound or inhibitor was used as blank control. For non-specific activity, 100 μM L-NMMA was used. Runs using the IC50 concentration of L-NAME were done in parallel as controls. All incubations are performed in duplicate.
Nitric oxide synthase 1, sequence (P29475 whole entry): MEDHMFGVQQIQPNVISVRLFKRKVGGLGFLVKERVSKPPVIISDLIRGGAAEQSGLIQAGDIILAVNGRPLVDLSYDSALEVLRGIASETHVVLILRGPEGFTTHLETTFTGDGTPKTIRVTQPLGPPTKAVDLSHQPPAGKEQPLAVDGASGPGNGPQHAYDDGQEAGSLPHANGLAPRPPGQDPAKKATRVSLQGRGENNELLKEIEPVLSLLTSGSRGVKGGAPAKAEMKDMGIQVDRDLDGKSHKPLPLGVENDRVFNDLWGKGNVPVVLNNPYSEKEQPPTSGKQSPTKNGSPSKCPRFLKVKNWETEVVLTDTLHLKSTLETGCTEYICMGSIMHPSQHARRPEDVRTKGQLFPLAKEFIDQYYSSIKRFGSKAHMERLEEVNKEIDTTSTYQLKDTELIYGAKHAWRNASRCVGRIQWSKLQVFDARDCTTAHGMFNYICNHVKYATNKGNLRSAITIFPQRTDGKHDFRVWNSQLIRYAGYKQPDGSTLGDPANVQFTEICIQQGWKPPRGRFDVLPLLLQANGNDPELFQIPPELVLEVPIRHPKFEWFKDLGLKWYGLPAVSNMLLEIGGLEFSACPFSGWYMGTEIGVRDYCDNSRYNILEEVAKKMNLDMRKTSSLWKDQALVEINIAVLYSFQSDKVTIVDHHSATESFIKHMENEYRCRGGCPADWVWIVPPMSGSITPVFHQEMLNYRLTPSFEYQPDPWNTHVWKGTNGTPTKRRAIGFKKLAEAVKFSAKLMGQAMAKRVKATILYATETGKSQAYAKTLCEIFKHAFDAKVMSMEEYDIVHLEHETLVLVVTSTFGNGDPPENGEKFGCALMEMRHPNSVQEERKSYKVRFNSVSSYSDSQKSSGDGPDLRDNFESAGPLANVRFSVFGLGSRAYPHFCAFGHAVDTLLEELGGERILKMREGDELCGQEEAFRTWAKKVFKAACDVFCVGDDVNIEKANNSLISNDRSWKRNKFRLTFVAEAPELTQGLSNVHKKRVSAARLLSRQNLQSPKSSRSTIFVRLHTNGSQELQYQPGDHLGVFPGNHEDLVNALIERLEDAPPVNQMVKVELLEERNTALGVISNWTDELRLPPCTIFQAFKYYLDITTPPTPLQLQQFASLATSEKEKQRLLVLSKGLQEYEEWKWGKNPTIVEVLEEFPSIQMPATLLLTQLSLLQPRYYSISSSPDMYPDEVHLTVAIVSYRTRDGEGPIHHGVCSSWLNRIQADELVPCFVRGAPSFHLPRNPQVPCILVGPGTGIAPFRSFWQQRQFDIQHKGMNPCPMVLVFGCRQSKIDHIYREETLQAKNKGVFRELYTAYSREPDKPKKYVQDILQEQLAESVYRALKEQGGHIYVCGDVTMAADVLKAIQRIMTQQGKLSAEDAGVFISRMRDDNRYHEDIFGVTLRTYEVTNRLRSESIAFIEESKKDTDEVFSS

A further assay deals with T1, Nitric oxide synthase 3 (Homo sapiens, UniProt P29474).
T1 sequence (P29474 whole entry): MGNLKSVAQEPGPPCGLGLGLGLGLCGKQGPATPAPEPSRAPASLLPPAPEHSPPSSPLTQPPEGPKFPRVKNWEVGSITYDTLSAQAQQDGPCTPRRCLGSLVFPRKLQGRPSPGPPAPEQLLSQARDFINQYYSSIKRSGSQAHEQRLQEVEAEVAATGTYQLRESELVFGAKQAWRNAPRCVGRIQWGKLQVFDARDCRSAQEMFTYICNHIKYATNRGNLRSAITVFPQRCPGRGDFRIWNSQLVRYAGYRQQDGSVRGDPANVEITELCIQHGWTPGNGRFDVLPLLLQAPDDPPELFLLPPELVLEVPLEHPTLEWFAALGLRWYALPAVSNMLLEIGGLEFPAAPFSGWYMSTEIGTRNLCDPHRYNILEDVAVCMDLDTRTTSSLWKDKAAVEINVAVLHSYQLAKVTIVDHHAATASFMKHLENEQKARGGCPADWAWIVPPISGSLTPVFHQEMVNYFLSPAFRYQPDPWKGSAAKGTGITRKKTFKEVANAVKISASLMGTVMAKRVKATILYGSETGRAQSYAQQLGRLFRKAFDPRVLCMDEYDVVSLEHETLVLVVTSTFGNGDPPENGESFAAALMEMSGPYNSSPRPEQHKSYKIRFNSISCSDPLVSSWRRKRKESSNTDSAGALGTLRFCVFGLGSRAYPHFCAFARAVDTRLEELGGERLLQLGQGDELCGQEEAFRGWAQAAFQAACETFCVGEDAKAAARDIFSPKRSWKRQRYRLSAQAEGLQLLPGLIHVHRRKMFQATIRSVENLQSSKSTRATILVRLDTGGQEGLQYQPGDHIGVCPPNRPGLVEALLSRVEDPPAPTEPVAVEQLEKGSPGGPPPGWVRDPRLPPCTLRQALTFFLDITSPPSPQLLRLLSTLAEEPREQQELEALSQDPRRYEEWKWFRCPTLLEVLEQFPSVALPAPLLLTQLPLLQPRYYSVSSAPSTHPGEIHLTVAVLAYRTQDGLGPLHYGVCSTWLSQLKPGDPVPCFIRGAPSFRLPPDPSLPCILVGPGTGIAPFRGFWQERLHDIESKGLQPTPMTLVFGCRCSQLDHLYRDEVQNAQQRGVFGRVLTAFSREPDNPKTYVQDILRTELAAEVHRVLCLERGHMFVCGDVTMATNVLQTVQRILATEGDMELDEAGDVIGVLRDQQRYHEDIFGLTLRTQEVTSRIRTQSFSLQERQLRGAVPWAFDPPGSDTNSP
The assay is described as §1.

As to `CN1CCCC1CCN1CCOc2cc(/N=C(\N)c3cccs3)ccc21` (stereo not given), the half-inhibitory concentration (IC50) was determined as 10.6 µM in assay [1] and 0.43 µM on Nitric oxide synthase 1.

In the case of `CN1CCCC1CCN1C(=O)COc2cc(NC(=N)c3cccs3)ccc21` (stereo not given), the IC50 in assay [1] is above 100 µM; on Nitric oxide synthase 3, 87.2 µM; at Nitric oxide synthase 1, 2.08 µM.
